# Laboratory results from publication PMC5329948, “Caspase vinyl sulfone small molecule inhibitors prevent axonal degeneration in human neurons and reverse cognitive impairment in Caspase-6-overexpressing mice” (Molecular Neurodegeneration, 2017).
# Columns and labels:
# [1] = target: T1, recombinant Caspase-1 (Homo sapiens, UniProt P29466); experiment: Caspase Inhibitor Drug Screening Kit (BioVision), WAD-AFC substrate; assay type: biochemical; details: not active site titrated
# T1 construct: purchased BioVision
# T1 sequence (P29466 120-404): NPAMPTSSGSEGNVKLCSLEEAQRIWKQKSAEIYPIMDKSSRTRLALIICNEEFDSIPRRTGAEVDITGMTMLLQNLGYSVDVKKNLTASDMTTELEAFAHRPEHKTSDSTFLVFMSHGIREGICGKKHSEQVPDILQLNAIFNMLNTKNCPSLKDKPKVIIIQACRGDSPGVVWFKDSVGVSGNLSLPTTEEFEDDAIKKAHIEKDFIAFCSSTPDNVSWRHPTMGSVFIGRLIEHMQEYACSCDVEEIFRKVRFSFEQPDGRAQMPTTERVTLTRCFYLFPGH
# Description: (§1) The half-maximal inhibitory concentrations (IC50) for NWL inhibitors (Patent publication # WO/2009/140765, WO/2010/133000, and WO/2012/140500) was determined by incubating 0 to 20 μM NWL-117 and NWL-154 with 20 nM of active site-titrated Casp6 in SB at room temperature for 5 minutes. Then, 10 μM Ac-VEID-AFC was added and fluorescence measured for 20 min at 37 °C as described above. New World Laboratories performed the IC50 determination for NWL inhibitors dissolved in dimethyl sulfoxide (DMSO) against recombinant Casp1-10 using the Caspase Inhibitor Drug Screening Kits (BioVision, San Francisco, CA) following the manufacturer’s instructions and the preferred substrates for the caspases (Caspase-1: WAD-AFC, Caspase-2: VDVAD-AFC, Caspase-3: DEVD-AFC, Caspase-4: LEVD-AFC, Caspase-5: WEHD-AFC, Casp6:VEID-AFC, Caspase-7: DEVD-AFC, Caspase-8: IETD-AFC, Caspase-9: LEHD-AFC, Caspase-10: AEVD-AFC). In transfected HCT116 cells, 0 to 100 μM NWL inhibitors were added in the culture media and left on the cells for 2 h. Cells were washed once with 1 mL ice-cold PBS, incubated on ice for 5 min with 200 μL cell lysis buffer (CLB) (50 mM HEPES, 0.1% CHAPS, 0.1 mM EDTA), and gently scraped off. Protein concentrations were determined by Bradford assay (BioRad, Mississauga, ON, CA) by measuring the absorbance at 595 nm using the BioTek Synergy H4 plate reader. […]
# [2] = target: T2, recombinant Caspase-8 (Homo sapiens, UniProt Q14790); experiment: Caspase Inhibitor Drug Screening Kit (BioVision), IETD-AFC substrate; assay type: biochemical; details: not active site titrated
# T2 construct: purchased BioVision
# T2 sequence (Q14790 217-479): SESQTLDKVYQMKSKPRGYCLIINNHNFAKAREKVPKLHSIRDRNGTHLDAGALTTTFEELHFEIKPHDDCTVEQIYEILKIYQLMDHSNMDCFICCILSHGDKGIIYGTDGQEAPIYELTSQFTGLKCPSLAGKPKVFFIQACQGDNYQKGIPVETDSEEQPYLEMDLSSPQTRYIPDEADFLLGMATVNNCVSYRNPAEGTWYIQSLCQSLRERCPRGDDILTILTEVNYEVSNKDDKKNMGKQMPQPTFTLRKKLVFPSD
# Description: as §1
# [3] = system: primary human CNS neurons; experiment: Cellular toxicity in primary human neurons (phase contrast, MTT); assay type: cell-based; details: for toxicity in human neurons: concentrations up to 100 μM; for neuronal morphology / mitochondrial reductive potential (MTT): primary human neurons; for neuronal morphology: 100 μM, 24 h; for mitochondrial reductive potential (MTT): 24 or 48 h
# Description: HCT116: Human colon carcinoma (HCT116) cells (ATCC, Manassas, VA, USA) were cultured in McCoy’s 5A modified media (Thermo Fisher Scientific, Waltham, MA, USA) supplemented with 10% fetal bovine serum (Thermo Fisher Scientific, Waltham, MA, USA) and transfected with 1 μg of pCep4βCasp6p20p10 mixed with 8 μg of polyethyleneimine (Polysciences Inc., Warrington, PA, USA). Protein expression was allowed for 24 h before treating with vehicle (PBS), 100 μM NWL-117, or 100 μM NWL-154 for 2 h. For NWL inhibitor kinetic experiments, 100 μM of NWL-117 or NWL-154 was added at 120, 90, 60, 30, 15, or 0 min before harvest. […] For recovery time course experiments, after the initial treatment with 100 μM of NWL-117 or −154 for 2 h, the media was replaced with fresh media for 120, 90, 60, 30, 15, or 0 min before harvest. Primary Human CNS neurons: Cortical tissues were obtained from the Birth Defects Research Laboratory (BDRL, University of Washington, Seattle, USA) in accordance with NIH ethical guidelines approved by McGill University’s institutional review board and primary neurons cultured as previously described. Primary human neurons were seeded on poly-L-lysine-coated (5 μg/mL) 6-well plates or glass coverslips coated with poly-L-lysine and laminin (5 μg/mL) (Sigma-Aldrich, Oakville, ON, CA) at a density of 3x10^6 cells/mL. Primary human neurons were pre-treated with 0.1 μM epoxomicin (Enzo LifeSciences, Farmingdale, NY, USA) and 100 μM NWL-117, 100 μM NWL-154, or vehicle (PBS) for 2 h, and serum-deprived for 2 h in the presence of epoxomicin and vehicle (PBS), 100 μM NWL-117, or 100 μM NWL-154 before harvesting or measuring caspase activity with FLICA, as described below.
# Immunofluorescence on human neuron cultures: Primary human neurons were pre-treated 2 h and serum-deprived in the presence of 100 μM NWL-117, 100 μM NWL-154, or 5 μM Z-VEID-fmk (Biomol, Plymouth meeting, PA, USA) for 24 h. Following treatment, human neurons were washed once with warm PBS, fixed for 20 min at room temperature with 4% paraformaldehyde (Sigma, Oakville, ON, CA)/4% sucrose (BioRad, Mississauga, ON, CA) for TubΔCasp6 or 2% formaldehyde (Thermo Fisher Scientific, Waltham, MA, USA)/0.2% glutaraldehyde (Sigma, Oakville, ON, CA) for pBudEGFP or pBudEGFP/APP^WT-transfected neurons, incubated in permeabilization buffer (0.1% Triton X-100, 0.1 sodium citrate) for 1 min on ice, washed with PBS, blocked for 20 min at room temperature with 10% goat serum (Sigma, Oakville, ON, CA), and incubated with primary antibodies diluted in 10% goat serum in PBS overnight at 4 °C in a humid chamber. The glass coverslips were washed with PBS, and incubated with goat anti-rabbit secondary antibody coupled to Alexa 488 (Molecular Probes, Eugene, OR, USA) or Cy3 (GE Healthcare Life Sciences, Baie D’Urfe, QC, CA) and Hoechst 33342 (ImmunoChemistry, Bloomington, MN, USA) at 1 μg/mL for 2 h at room temperature. The coverslips were washed with PBS and rinsed in Milli-Q water before mounting in fluoromount (Dako, Burlington, ON, CA). Images were acquired by fluorescence microscopy and quantified using the ImageJ software (NIH, Bethesda, MD, USA) for TubΔCasp6 and manually counted for transfected EGFP(+)-neurons. Time lapse-imaging by live fluorescence microscopy: Primary human neurons were transfected with gold beads coated with pBudEGFP or pBudEGFP/APP^WT using a Helios Gene gun (BioRad, Mississauga, ON, CA). Briefly, cells were pre-treated with 100 μM NWL inhibitors or 5 μM Z-VEID-fmk for 2 h. The media was removed and the neurons were shot at 100 psi. The media was quickly replaced with the inhibitors present. The plasmid was expressed for 16 h before setting up the fluorescence microscope (Nikon Eclipse Ti) to acquire 20 images per condition every hour for 72 h at 37 °C with 5% CO2. The images were analyzed by counting the total number of neurons (50–100 neurons per condition per independent experiment), and the number of beaded, swollen soma, and healthy neurons. […]
Compound,IC50 [1],IC50 [2],toxicity in human neurons [3],neuronal morphology [3],mitochondrial reductive potential (MTT) [3]
CCC(C)[C@H](NC(=O)[C@H](CCC(=O)O)NC(=O)[C@@H](NC(=O)OCc1ccccc1)C(C)C)C(=O)N[C@H](/C=C/S(C)(=O)=O)CC(=O)O (stereo partly shown) [NWL-117],2700 nM,660 nM,neither NWL-117 nor −154 is toxic,did not change neuronal morphology,comparable to vehicle-treated neurons
CCC(C)[C@H](NC(=O)[C@H](CCC(=O)O)NC(=O)[C@@H](NC(=O)OCc1ccccc1)C(C)C)C(=O)N[C@H](/C=C(\Cl)S(C)(=O)=O)CC(=O)O (stereo partly shown) [NWL-154],3850 nM,530 nM,neither NWL-117 nor −154 is toxic,did not change neuronal morphology,comparable to vehicle-treated neurons
